Laboratory results as given in patent publication US20200345746A1, “Oxazine Derivative for Use in the Prevention of Alzheimer's Disease in at Risk Patents” (Novartis AG, priority 2016, published 2020).
“Also recorded” adds a separate entry of the source.

How the values were obtained:
[1] = Drug-drug interaction study: PK of Compound 1 with the strong CYP3A4 inhibitor itraconazole; assay type: in vivo, human; settings: healthy volunteers, with itraconazole 200 mg q.d. vs Compound 1 alone
Aβ42 = experiment: Acute PK/PD in APOE4-TR mice: Aβ42 in CSF; assay type: in vivo, mouse; settings: for Average Aβ42 CSF ± SD: n = 6
Experimental: Compound 1 was formulated as a suspension. Vehicle or compound was given by oral administration in a volume of 10 ml/kg once. Vehicle: 0.1% Tween80 in 0.5% Methylcellulose in water.
Analysis of Aβ40 in Mouse Brain and Aβ40 and Aβ42 in CSF

amyloid plaques = experiment: Plaque histology in APP23 mice (plaque numbers and plaque area); assay type: in vivo, mouse; settings: for Number of large plaques / Number of medium plaques / Number of small plaques: normalized to total area (1000000 * mean ± SEM)
Experimental: Amyloid plaques were stained using a rabbit anti-Aβ primary antibody which recognizes the C-terminal part of the amyloid peptide (the antibody was raised as described in Schrader-Fischer G, Paganetti P A, 1996; Schrader-Fischer G et al., 1997). Activated astrocytes were detected using a commercial rabbit anti-GFAP (reference Z0334 from Dako Schweiz GmbH, Baar, Switzerland).
All stainings were performed using the fully automated instrument Ventana Discovery® Ultra (Roche Diagnostics Schweiz AG, Rotkreuz, Switzerland). All chemicals were provided by Roche Diagnostic.
All study animals were used and brain tissue sections of 3 micrometers were freshly cut and collected on SuperFrost+ slides. The tissues sections were de-paraffinized and rehydrated under solvent-free conditions (EZprep solution) followed by antigen retrieval (demasking) performed by heat retrieval cycles for 32 min in an EDTA based buffer (CC1 solution). Subsequently, slides were blocked for 4 min using the DISCOVERY Inhibitor (reference 07017944001 (Roche)). The primary antibody diluted at 1/20,000 in antibody diluent was manually added on tissue sections and incubated for 1h at room temperature. A short post-fixation (glutaraldehyde at 0.05%) was performed before applying the multimer UltraMap-anti Rabbit HRP ready to use antibody (reference 05269717001) for 16 min.
Detection was performed using the DISCOVERY FITC® following the manufacturer's recommendations. Slides were then heat denaturated at 92° C. for 20 min before a manual application of the second primary antibody (anti-GFAP diluted at 1/2,000) and incubated for 1 h. UltraMap-anti-Rabbit HRP antibody was used again for 20 min to detect GFAP in combination with the DISCOVERY Rhodamine kit (reference 07259883001).
The slides were washed and mounted using Prolong® Gold antifade reagent (reference P36931, ThermoFisher, Switzerland) and further scanned with the Hamamatsu slide scanner instrument (NanoZoomer 2.0 HT, scanning software NDP-Scan Vers. 2.5, Hamamatsu Photonics France, Swiss Office, Solothurn, Switzerland) at the 40× objective. The scanning settings were as follows: the exposure time with the DAPI filter was set at 57 ms as well as for the FITC filter. The exposure time for the TRITC filter (detection of Rhodamine) was set at 14.2 ms.
For the quantitative plaque evaluation based on image analysis, a proprietary image analysis platform (ASTORIA, Automated Stored Image Analysis) was developed based on MS Visual Studio 2010 and many functions from Matrox MIL V9 libraries (Matrox Inc, Quebec, Canada).
For the beta-amyloid plaque and neuroinflammation analysis, the following sequence of steps was performed: • Slides were scanned with Hamamatsu Nanozoomer at 40× magnification. For each fluorescence labelling (DAPI, FITC and TRITC), a separate image was created • Manually outline ROIs (regions of interest) for defining cortex in brain sections for Aβ plaque assessment on the green FITC channel image, then use the resulting outline also for the other two channel images (copy resulting xml files) • Run the in-house developed ImageScope (V12.1.0.5029, Aperio Inc., USA) plug-in for creation and export of *.tif image tiles (at 10× magnification) for each of the 3 fluorescence channels
Image Batch Processing: • Obtain the combined true color image (DAPI, FITC, TRITC) for each section through accessing each individual fluorescence channel image • Segmentation of valid sample (within outlined ROI) from black unstained background • Apply adaptive thresholding technique for segmentation of objects in green channel image […]

C57BL/6 mice = experiment: Fur colour scoring, chronic 8-week dosing in wild-type mice; assay type: in vivo, mouse; settings: 8 and 50 μmol/kg p.o. once daily, 8 weeks
Experimental: Compound 1 and NB-360 were formulated as a suspension. […] Vehicle: […] in 0.5% methylcellulose in water.
Body weight was taken 3 times per week (Monday, Wednesday, Friday). Subjective scoring of any hair colour changes was performed once weekly (Wednesday). Scores (% of body with grey fur): 0: No change; 1: Spots; 2: >30%; 3: >50%; 4: >75%; 5: 100%. Animals were photo-documented when fur color change was observed. Final fur color scoring was performed blinded and by a person not involved in the study.

C[C@@]1(c2nc(NC(=O)c3ncc(C(F)(F)F)cc3Cl)ccc2F)CO[C@@](C)(C(F)(F)F)C(N)=N1 [Compound 1, N-(6-((3R,6R)-5-amino-3,6-dimethyl-6-(trifluoromethyl)-3,6-dihydro-2H-1,4-oxazin-3-yl)-5-fluoropyridin-2-yl)-3-chloro-5-(trifluoromethyl)picolinamide]
increase of mean AUC of Compound 1 [1]: 2-3 fold | increase of mean Cmax of Compound 1 [1]: 25% | Mini AUEC (CSF Aβ42) (Aβ42; 3 μmol/kg acute): 38% | Average Aβ42 CSF ± SD (Aβ42; 3 μmol/kg acute p.o., 4 h): 0.0524 ± 0.02173 pmol/mL | Average Aβ42 CSF ± SD (Aβ42; 3 μmol/kg acute p.o., 24 h): 0.09317 ± 0.05304 pmol/mL | % reduction vs vehicle (CSF Aβ42) (Aβ42; 3 μmol/kg acute, 4 h): 55% | % reduction vs vehicle (CSF Aβ42) (Aβ42; 3 μmol/kg acute, 24 h): 21% | Mini AUEC (CSF Aβ42) (Aβ42; 10 μmol/kg acute): 50% | Average Aβ42 CSF ± SD (Aβ42; 10 μmol/kg acute p.o., 4 h): 0.02318 ± 0.00446 pmol/mL | Average Aβ42 CSF ± SD (Aβ42; 10 μmol/kg acute p.o., 24 h): 0.09438 ± 0.09019 pmol/mL | % reduction vs vehicle (CSF Aβ42) (Aβ42; 10 μmol/kg acute, 4 h): 80% | % reduction vs vehicle (CSF Aβ42) (Aβ42; 10 μmol/kg acute, 24 h): 20% | Mini AUEC (CSF Aβ42) (Aβ42; 30 μmol/kg acute): 81% | Average Aβ42 CSF ± SD (Aβ42; 30 μmol/kg acute p.o., 4 h): 0.0080 ± 0.00395 pmol/mL | Average Aβ42 CSF ± SD (Aβ42; 30 μmol/kg acute p.o., 24 h): 0.03717 ± 0.02438 pmol/mL | % reduction vs vehicle (CSF Aβ42) (Aβ42; 30 μmol/kg acute, 4 h): 93% | % reduction vs vehicle (CSF Aβ42) (Aβ42; 30 μmol/kg acute, 24 h): 68% | Number of large plaques (amyloid plaques; APP23, 0.03 g/kg food): 0.09 ± 0.02 | Number of medium plaques (amyloid plaques; APP23, 0.03 g/kg food): 1.06 ± 0.14 | Number of small plaques (amyloid plaques; APP23, 0.03 g/kg food): 10.06 ± 1.55 | Number of large plaques, change vs vehicle (amyloid plaques; APP23, 0.03 g/kg vs vehicle): −29.9% | Number of medium plaques, change vs vehicle (amyloid plaques; APP23, 0.03 g/kg vs vehicle): −22.9% | Number of small plaques, change vs vehicle (amyloid plaques; APP23, 0.03 g/kg vs vehicle): −30.3% | Total plaque area, change vs vehicle (amyloid plaques; APP23, 0.03 g/kg vs vehicle): −26.4% | Number of large plaques (amyloid plaques; APP23, 0.3 g/kg food): 0.04 ± 0.01 | Number of medium plaques (amyloid plaques; APP23, 0.3 g/kg food): 0.58 ± 0.10 | Number of small plaques (amyloid plaques; APP23, 0.3 g/kg food): 5.78 ± 0.75 | Number of large plaques, change vs vehicle (amyloid plaques; APP23, 0.3 g/kg vs vehicle): −68.2% | Number of medium plaques, change vs vehicle (amyloid plaques; APP23, 0.3 g/kg vs vehicle): −57.9% | Number of small plaques, change vs vehicle (amyloid plaques; APP23, 0.3 g/kg vs vehicle): −60.0% | Total plaque area, change vs vehicle (amyloid plaques; APP23, 0.3 g/kg vs vehicle): −59.5% | reduction of plaque load (immunohistochemistry) (amyloid plaques; APP23, high dose group): ~70% | reduction of the increase in plaques and total plaque area (amyloid plaques; APP23, high dose treatment group): about 60% | reduction of plaque load (immunohistochemistry) (amyloid plaques; APP23, low dose group): ~20% | reduction of the increase in plaques and total plaque area (amyloid plaques; APP23, low dose treatment group): about 25% | fur colour change (C57BL/6 mice): no apparent fur color change detectable; also recorded: did not show signs of hair discoloration
